For twelve molecules, IC50 results are on record in patent US20240254132A1, “COMPOUNDS, COMPOSITIONS AND METHODS” (Denali Therapeutics Inc., priority 2021, published 2024).

This test deals with IL-1β secretion, THP-1 cells. The experiment in a line: IL-1β secretion assay in PMA-differentiated THP-1 cells (LPS + nigericin stimulation, IL-1β ELISA). In kind it is cell-based. To be noted: LPS 25 ng/mL, IL-1β by ELISA. As to the method:
Compounds as provided herein were tested in the following assay. Cell culture medium employed contained RPMI 1640 medium (89%), FBS (10%), Pen/Strep (1%), and 2-mercaptoethanol (0.05 mm). Freezing medium was made up of 90% FBS and 10% DMSO. THP-1 cells were removed from the liquid nitrogen and placed into a 37° C. water bath to thaw, until signs of ice dissipated. The cells were then added to 9 mL of warm cell culture medium and centrifuged for 5 minutes at 1000 rpm. The supernatant was discarded, and the cells were resuspended in new cell culture medium. THP-1 cells were then split and cultured in the cell culture medium, being passaged every 2-3 days with the cell density will be maintained between 5×10^5 and 1.5×10^6 viable cells/mL.
Procedure for […], Secretion Assay in 384-Well Plates
PMA was dissolved in DMSO to make a stock solution at 5 mg/mL and stored in 10 μl aliquots at −20° C. for single use. PMA is added to normal growth medium. LPS was diluted with 1 mL of water solution to provide a 1 mg/mL stock solution and stored in 15 μl aliquots at −20° C. for single use. Nigericin is diluted in ice cold 100% ethanol to 5 mg/mL (6.7 mM) and stored in 75 μL aliquots at −20° C. for single use. Serum-free media contains RPMI 1640 medium (99%), Pen/Strep (1%), and 2-mercaptoethanol (0.05 mM). The two control conditions used to qualify and normalize test compound dose-response curves were as follows: High Control=25 ng/mL LPS, 5 μM Nigericin, 0.5% DMSO, Low Control=25 ng/mL, LPS, 0.5% DMSO.
THP-1 cells were diluted to provide a suspension at a concentration of 1.0×10^6 cells/mL with the total volume of suspension required to enable the desired number of assay plates. The growth media was supplemented with PMA (5 ng/mL final concentration) and the cells were incubated at 37° C. under a humidified atmosphere of 5% CO2 for 40 h.
All media was carefully aspirated from each culture flask. The cells were washed carefully with 1×DPBS. The cells were then briefly digested with trypsin LE for 5 minutes at 23° C. and immediately resuspended in cell growth media. After resuspension, the cells were centrifuged at 1000 rpm for 3 minutes and the supernatant was discarded. The cells were resuspended in DPBS and once again centrifuged at 1000 rpm for 5 minutes. The supernatant was discarded and the cell pellet was resuspended in serum-free media supplemented with LPS (25 ng/mL final concentration) to enable the distribution of 30K THP-1 cells within 45 μL of media into each well of 384-well PDL-coated plates. The 384-well plates were then incubated at 37° C. under a humidified atmosphere of 5% CO2 for 2 h. Following this period, test compounds were dispensed by Tecan across the desired concentration range with all wells normalized to a final 0.5% DMSO concentration. The plates were then incubated at 37° C. under a humidified atmosphere of 5% CO2 for 1 h. Following this period, 5 μL of the 5 mg/mL nigericin stock solution was added to each of the appropriate wells and plates were centrifuged at 1000 rpm for 30 seconds. The plates were the immediately reintroduced to the incubator at 37° C. under a humidified atmosphere of 5% CO2 for 2 h. After this time, 35 μL/well of supernatant was collected and transferred into v-bottom plate and centrifuged at 1000 rpm for 1 minute. These supernatant aliquots were analyzed using an IL-Iβ detection kit as described below. If needed, the test samples could be snap frozen and stored at −80° C. until analyzed.
To prepare each ELISA plate, capture antibody (mAb Mt175) was diluted with PBS to a final concentration of 2 μg/mL and then 20 μL of this solution was added to each well of the ELISA plate. Each plate was allowed to incubate overnight at 4° C. The next day, the capture antibody solution was removed and discarded. Each ELISA plate was washed 4 times with PBST followed by the addition of 25 μL/well of blocking buffer (Licor-927-40010) supplemented with 0.1% Tween 20. […]
(An ELISA detects its analyte on a solid surface through an enzyme-linked reagent.)

The mark [1] stands for this setting: Homo sapiens, THP-1, class symbol.
The mark [2] stands for this setting: Homo sapiens, THP-1, numeric value.

As for `O=C(CN1C(=O)c2ccc(C(F)(F)F)c(F)c2C2(CC2)C1=O)Nc1ncc(F)cn1` [Example 16, 2-[5′-fluoro-1′,3′-dioxo-6′-(trifluoromethyl)spiro[cyclopropane-1,4′-isoquinoline]-2′-yl]-N-(5-fluoropyrimidin-2-yl)acetamide], the IC50 – broadly, the concentration at which inhibition is half-maximal – is, setting by setting: under setting [1], < 10 µM; under setting [2], 0.918 µM.
For `CC1(C)C(=O)N(CC(=O)Nc2ncc(F)cn2)C(=O)c2ccc(Br)cc21` [Example 7] the same measures were < 10 µM and 0.269 µM.
For `O=C(CN1C(=O)c2ccc(Br)c(F)c2C2(CC2)C1=O)Nc1ncc(F)cn1` [Example 29, 2-(6′-bromo-5′-fluoro-1′,3′-dioxospiro[cyclopropane-1,4′-isoquinoline]-2′-yl)-N-(5-fluoropyrimidin-2-yl)acetamide] the same measures were < 10 µM and 0.099 µM.
Consider `C[C@H]1C[C@@]12C(=O)N(CC(=O)Nc1ncc(F)cn1)C(=O)c1ccc(Br)cc12` (single isomer, unassigned) [Example 14, N-(5-fluoropyrimidin-2-yl)-2-[(1r,2s)-6′-bromo-2-methyl-1′,3′-dioxospiro[cyclopropane-1,4′-isoquinoline]-2′-yl]acetamide], for which the IC50 is, setting by setting: (class symbol) < 10 µM; (numeric value) 6.66 µM.
In the case of `O=C(CN1C(=O)c2ccc(Br)cc2C2(CC2)C1=O)Nc1ncc(F)cn1` [Example 33, 2-(6′-bromo-1′,3′-dioxospiro[cyclopropane-1,4′-isoquinoline]-2′-yl)-N-(5-fluoropyrimidin-2-yl)acetamide], the IC50 under setting [1] was < 10 µM and the IC50 under setting [2] is 0.184 µM.
Turning to `O=C(CN1C(=O)c2ccc(Br)c(F)c2C2(CC2)C1=O)Nc1ncc2cn[nH]c2n1` [Example 24, 2-(6′-bromo-5′-fluoro-1′,3′-dioxospiro[cyclopropane-1,4′-isoquinoline]-2′-yl)-N-(1H-pyrazolo[3,4-d]pyrimidin-6-yl)acetamide], the IC50 runs as follows: under setting [1], < 10 µM; under setting [2], 0.088 µM.
Regarding `Cc1cnc(NC(=O)CN2C(=O)c3ccc(Br)c(F)c3C3(CC3)C2=O)nc1` [Example 20, 2-(6′-bromo-5′-fluoro-1′,3′-dioxospiro[cyclopropane-1,4′-isoquinoline]-2′-yl)-N-(5-methylpyrimidin-2-yl)acetamide], the IC50 runs as follows: under setting [1], < 10 µM; under setting [2], 0.261 µM.
For `CC1(C(F)(F)F)C(=O)N(CC(=O)Nc2ncc(F)cn2)C(=O)c2ccc(Br)cc21` (stereo not drawn) [Example 17, 2-[6-bromo-4-methyl-1,3-dioxo-4-(trifluoromethyl)isoquinolin-2-yl]-N-(5-fluoropyrimidin-2-yl)acetamide] the same measures were < 10 µM and 2.4 µM.
Take `O=C1c2ccc(Br)cc2C2(CC2)C(=O)N1C1(C(=O)Nc2ncc(F)cn2)CC1` [Example 22, 1-(6′-bromo-1′,3′-dioxospiro[cyclopropane-1,4′-isoquinoline]-2′-yl)-N-(5-fluoropyrimidin-2-yl)cyclopropane-1-carboxamide]: the IC50 is, setting by setting: under setting [1], < 10 µM; under setting [2], 8.08 µM.
`O=C(CN1C(=O)c2ccc(Br)cc2C2(COC2)C1=O)Nc1ncc(F)cn1` [Example 19, 2-(6-bromo-1,3-dioxospiro[isoquinoline-4,3′-oxetane]-2-yl)-N-(5-fluoropyrimidin-2-yl)acetamide]: the IC50 is < 10 µM under setting [1] and 4.46 µM under setting [2].
`CCC(C(=O)Nc1ncc(F)cn1)N1C(=O)c2ccc(Br)cc2C2(CC2)C1=O` (stereo not drawn) [Example 23, 2-(6′-bromo-1′,3′-dioxospiro[cyclopropane-1,4′-isoquinoline]-2′-yl)-N-(5-fluoropyrimidin-2-yl)butanamide]: the IC50 is, setting by setting: under setting [1], < 10 µM; under setting [2], 2.17 µM.
Consider `O=C(CN1C(=O)c2ccc(Br)cc2C2(CC2)C1=O)N[C@@H]1CCCN(C2CCC2)C1` [Example 9, 2-(6′-bromo-1′,3′-dioxospiro[cyclopropane-1,4′-isoquinoline]-2′-yl)-N-[(3R)-1-cyclobutylpiperidin-3-yl]acetamide], for which the IC50 is, setting by setting: under setting [1], < 10 µM; under setting [2], 0.307 µM.
